This assay deals with (recombinant) catalytic domain of human Bub1 (amino acids 704-1085) (Homo sapiens (Human), UniProt O43683). The assay can be described thus: Bub1 kinase assay (TR-FRET). Particulars: ATP 10 μM final, peptide substrate 1 μM final, 60 min at 22° C., read-out: Biological Assay: Bub1 kinase assay median IC50. The assay is classed as biochemical. The gist of the method:
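Compounds were serially diluted 1:3.4 from 2 mM DMSO stocks and incubated with the enzyme reaction for 60 min at 22° C. The reaction was stopped with EDTA, and biotinylated peptide phosphorylation was read by TR-FRET using Eu anti-mouse IgG, anti-phosphoserine antibody and streptavidin-XL665. IC50 was fitted by 4-parameter logistic to inhibition normalized to no-inhibitor and no-enzyme controls.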
Chain of (recombinant) catalytic domain of human Bub1 (amino acids 704-1085) (O43683 704-1085): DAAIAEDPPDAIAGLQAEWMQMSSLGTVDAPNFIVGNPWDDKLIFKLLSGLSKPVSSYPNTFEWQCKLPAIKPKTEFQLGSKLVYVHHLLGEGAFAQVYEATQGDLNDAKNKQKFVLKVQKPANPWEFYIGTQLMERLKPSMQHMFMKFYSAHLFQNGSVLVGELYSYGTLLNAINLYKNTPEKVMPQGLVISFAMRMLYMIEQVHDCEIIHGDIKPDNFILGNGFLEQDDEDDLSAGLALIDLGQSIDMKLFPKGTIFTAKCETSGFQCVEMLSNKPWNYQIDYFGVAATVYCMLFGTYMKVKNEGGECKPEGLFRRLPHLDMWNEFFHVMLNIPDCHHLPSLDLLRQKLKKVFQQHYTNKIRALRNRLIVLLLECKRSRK
For `CC1(C)CC(=O)c2c([nH]c(-c3ccnc(NC(=O)c4ccn[nH]4)c3)c2Nc2ccccc2)C1` [Example 465, N-{4-[6,6-dimethyl-4-oxo-3-(phenylamino)-4,5,6,7-tetrahydro-1H-indol-2-yl]pyridin-2-yl}-1H-pyrazole-3-carboxamide], the IC50 is 7.19 nM.

For the compound `CC1(C)CC(=O)c2c([nH]c(-c3ccnc(NC(=O)c4cc(F)cc(F)c4)c3)c2Nc2ccccc2)C1` [Example 467, N-{4-[6,6-dimethyl-4-oxo-3-(phenylamino)-4,5,6,7-tetrahydro-1H-indol-2-yl]pyridin-2-yl}-3,5-difluorobenzamide], the IC50 stood at 23.3 nM.

`CC1(C)CC(=O)c2c([nH]c(-c3ccnc(OCc4ccccc4)c3)c2Nc2ccccc2)C1` [Example 468, 2-[2-(benzyloxy)pyridin-4-yl]-6,6-dimethyl-3-(phenylamino)-1,5,6,7-tetrahydro-4H-indol-4-one]: the IC50 was > 20000 nM.

Regarding `CC1(C)CC(=O)c2c([nH]c(-c3ccnc(O)c3)c2Nc2ccccc2)C1` [Example 469, 2-(2-hydroxypyridin-4-yl)-6,6-dimethyl-3-(phenylamino)-1,5,6,7-tetrahydro-4H-indol-4-one], the IC50 amounted to 2160 nM.

On to `O=C(Nc1cc(-c2[nH]c3c(c2Nc2ccccc2)C(=O)CC2(CC2)C3)ccn1)c1cocn1` [Example 470, N-{4-[4′-oxo-3′-(phenylamino)-1′,4′,5′,7′-tetrahydrospiro[cyclopropane-1,6′-indol]-2′-yl]pyridin-2-yl}-1,3-oxazole-4-carboxamide], for which the IC50 worked out at 4.49 nM.

For the compound `CO/N=C1\CC(C)(C)Cc2[nH]c(-c3ccncc3)c(Nc3ccccc3)c21` [Example 471, 4-(methoxyimino)-6,6-dimethyl-N-phenyl-2-(pyridin-4-yl)-4,5,6,7-tetrahydro-1H-indol-3-amine], the IC50 is 4430 nM.

Regarding `CC1(C)CC(=O)c2c([nH]c(-c3ccnc(NC(=O)c4cnn(C(C)(C)C)c4)c3)c2Nc2ccccc2)C1` [Example 472, 1-tert-butyl-N-{4-[6,6-dimethyl-4-oxo-3-(phenylamino)-4,5,6,7-tetrahydro-1H-indol-2-yl]pyridin-2-yl}-1H-pyrazole-4-carboxamide], the IC50 was found to be 5.04 nM.

As to `CC1(C)CC(=O)c2c([nH]c(-c3ccnc(NC(=O)c4ccc(F)c(F)c4)c3)c2Nc2ccccc2)C1` [Example 473, N-{4-[6,6-dimethyl-4-oxo-3-(phenylamino)-4,5,6,7-tetrahydro-1H-indol-2-yl]pyridin-2-yl}-3,4-difluorobenzamide], the IC50 was 10.3 nM.

Take `COc1cc(C(=O)Nc2cc(-c3[nH]c4c(c3Nc3ccccc3)C(=O)CC(C)(C)C4)ccn2)ccc1F` [Example 474, N-{4-[6,6-dimethyl-4-oxo-3-(phenylamino)-4,5,6,7-tetrahydro-1H-indol-2-yl]pyridin-2-yl}-4-fluoro-3-methoxybenzamide]: the IC50 turned out to be 8.63 nM.

For `CC1(C)CC(=O)c2c([nH]c(-c3ccnc(NC(=O)C(C)(C)F)c3)c2Nc2ccccc2)C1` [Example 475, N-{4-[6,6-dimethyl-4-oxo-3-(phenylamino)-4,5,6,7-tetrahydro-1H-indol-2-yl]pyridin-2-yl}-2-fluoro-2-methylpropanamide], the 50% inhibitory concentration (IC50) turned out to be 38.7 nM.

Regarding `CC1(C)CC(=O)c2c([nH]c(-c3ccnc(NC(=O)COCc4ccccc4)c3)c2Nc2ccccc2)C1` [Example 476, 2-(benzyloxy)-N-{4-[6,6-dimethyl-4-oxo-3-(phenylamino)-4,5,6,7-tetrahydro-1H-indol-2-yl]pyridin-2-yl}acetamide], the IC50 was 8.04 nM.

Turning to `CC1(C)CC(=O)c2c([nH]c(-c3ccnc(NC(=O)C4CC4(F)F)c3)c2Nc2ccccc2)C1` (stereo not shown) [Example 477, N-{4-[6,6-dimethyl-4-oxo-3-(phenylamino)-4,5,6,7-tetrahydro-1H-indol-2-yl]pyridin-2-yl}-2,2-difluorocyclopropanecarboxamide], the IC50 came out at 6.62 nM.

For the compound `CC1(C)CC(=O)c2c([nH]c(-c3ccnc(NC(=O)c4cnn(Cc5ccccc5)c4)c3)c2Nc2ccccc2)C1` [Example 478, 1-benzyl-N-{4-[6,6-dimethyl-4-oxo-3-(phenylamino)-4,5,6,7-tetrahydro-1H-indol-2-yl]pyridin-2-yl}-1H-pyrazole-4-carboxamide], the IC50 worked out at 4.23 nM.

For `COc1ccc(Cn2cc(C(=O)Nc3cc(-c4[nH]c5c(c4Nc4ccccc4)C(=O)CC(C)(C)C5)ccn3)cn2)cc1` [Example 479, N-{4-[6,6-dimethyl-4-oxo-3-(phenylamino)-4,5,6,7-tetrahydro-1H-indol-2-yl]pyridin-2-yl}-1-(4-methoxybenzyl)-1H-pyrazole-4-carboxamide], the IC50 amounted to 5.09 nM.

Turning to `CC1(C)CC(=O)c2c([nH]c(-c3ccnc(NC(=O)c4cncs4)c3)c2Nc2ccccc2)C1` [Example 480, N-{4-[6,6-dimethyl-4-oxo-3-(phenylamino)-4,5,6,7-tetrahydro-1H-indol-2-yl]pyridin-2-yl}-1,3-thiazole-5-carboxamide], the IC50 was 6.3 nM.

Turning to `Cc1ccc(CO)c(Nc2c(-c3ccncc3)[nH]c3c2C(=O)CC(C)(C)C3)c1` [Example 481, 3-{[2-(hydroxymethyl)-5-methylphenyl]amino}-6,6-dimethyl-2-(pyridin-4-yl)-1,5,6,7-tetrahydro-4H-indol-4-one], the IC50 stood at 78.6 nM.

With `Cc1ccc(Nc2c(-c3ccncc3)[nH]c3c2C(=O)CC(C)(C)C3)c(CO)c1` [Example 482, 3-{[2-(hydroxymethyl)-4-methylphenyl]amino}-6,6-dimethyl-2-(pyridin-4-yl)-1,5,6,7-tetrahydro-4H-indol-4-one], the IC50 was 12.2 nM.

Regarding `Cc1cccc(Nc2c(-c3ccncc3)[nH]c3c2C(=O)CC(C)(C)C3)c1CO` [Example 483, 3-{[2-(hydroxymethyl)-3-methylphenyl]amino}-6,6-dimethyl-2-(pyridin-4-yl)-1,5,6,7-tetrahydro-4H-indol-4-one], the IC50 came to 9.48 nM.

In the case of `O=C1CCCc2[nH]c(-c3ccnc(NCCCCc4ccccc4)c3)c(Nc3ccccc3)c21` [Example 484, 3-(phenylamino)-2-{2-[(4-phenylbutyl)amino]pyridin-4-yl}-1,5,6,7-tetrahydro-4H-indol-4-one], the IC50 came to 907 nM.

Turning to `CC1(C)CC(=O)c2c([nH]c(-c3ccncc3)c2Nc2ccc(F)cc2CO)C1` [Example 485, 3-{[4-fluoro-2-(hydroxymethyl)phenyl]amino}-6,6-dimethyl-2-(pyridin-4-yl)-1,5,6,7-tetrahydro-4H-indol-4-one], the IC50 was 5.84 nM.

`CC1(C)CC(=O)c2c([nH]c(-c3ccncc3)c2Nc2cccc(F)c2CO)C1` [Example 486, 3-{[3-fluoro-2-(hydroxymethyl)phenyl]amino}-6,6-dimethyl-2-(pyridin-4-yl)-1,5,6,7-tetrahydro-4H-indol-4-one]: the IC50 turned out to be 3.45 nM.

On to `CC1(C)CC(=O)c2c([nH]c(-c3ccncc3)c2Nc2cc(F)ccc2CO)C1` [Example 487, 3-{[5-fluoro-2-(hydroxymethyl)phenyl]amino}-6,6-dimethyl-2-(pyridin-4-yl)-1,5,6,7-tetrahydro-4H-indol-4-one], for which the IC50 is 3.35 nM.

In the case of `CC1(C)CC(=O)c2c([nH]c(-c3ccncc3)c2Nc2ccccc2C(C)(C)O)C1` [Example 488, 3-{[2-(2-hydroxypropan-2-yl)phenyl]amino}-6,6-dimethyl-2-(pyridin-4-yl)-1,5,6,7-tetrahydro-4H-indol-4-one], the IC50 worked out at 39.1 nM.

On to `O=C1CCCc2[nH]c(-c3ccnc(NCCc4ccccc4)c3)c(Nc3ccccc3)c21` [Example 489, 3-(phenylamino)-2-{2-[(2-phenylethyl)amino]pyridin-4-yl}-1,5,6,7-tetrahydro-4H-indol-4-one], for which the IC50 is 3320 nM.

For the compound `O=C1CCCc2[nH]c(-c3ccnc(NCCCc4ccccc4)c3)c(Nc3ccccc3)c21` [Example 490, 3-(phenylamino)-2-{2-[(3-phenylpropyl)amino]pyridin-4-yl}-1,5,6,7-tetrahydro-4H-indol-4-one], the IC50 amounted to 2560 nM.

Take `CCO/N=C1\CC(C)(C)Cc2[nH]c(-c3ccncc3)c(Nc3ccccc3)c21` [Example 491, 4-(ethoxyimino)-6,6-dimethyl-N-phenyl-2-(pyridin-4-yl)-4,5,6,7-tetrahydro-1H-indol-3-amine]: the IC50 turned out to be 1240 nM.

For the compound `Cn1ccnc1COCC(=O)Nc1cc(-c2[nH]c3c(c2Nc2ccccc2)C(=O)CCC3)ccn1` [Example 493, 2-[(1-methyl-1H-imidazol-2-yl)methoxy]-N-{4-[4-oxo-3-(phenylamino)-4,5,6,7-tetrahydro-1H-indol-2-yl]pyridin-2-yl}acetamide], the IC50 came out at 8.63 nM.

On to `Cn1ncnc1COCC(=O)Nc1cc(-c2[nH]c3c(c2Nc2ccccc2)C(=O)CCC3)ccn1` [Example 494, 2-[(1-methyl-1H-1,2,4-triazol-5-yl)methoxy]-N-{4-[4-oxo-3-(phenylamino)-4,5,6,7-tetrahydro-1H-indol-2-yl]pyridin-2-yl}acetamide], for which the IC50 came to 10.9 nM.

On to `O=C(COCc1ccccn1)Nc1cc(-c2[nH]c3c(c2Nc2ccccc2)C(=O)CCC3)ccn1` [Example 495, N-{4-[4-oxo-3-(phenylamino)-4,5,6,7-tetrahydro-1H-indol-2-yl]pyridin-2-yl}-2-(pyridin-2-ylmethoxy)acetamide], for which the IC50 was 10.6 nM.

`Cc1ncsc1COCC(=O)Nc1cc(-c2[nH]c3c(c2Nc2ccccc2)C(=O)CCC3)ccn1` [Example 496, 2-[(4-methyl-1,3-thiazol-5-yl)methoxy]-N-{4-[4-oxo-3-(phenylamino)-4,5,6,7-tetrahydro-1H-indol-2-yl]pyridin-2-yl}acetamide]: the IC50 is 6.46 nM.

`CC1(C)CC(=O)c2c([nH]c(-c3ccnc(NCCCc4ccccc4)c3)c2Nc2ccccc2)C1` [Example 497, 6,6-dimethyl-3-(phenylamino)-2-{2-[(3-phenylpropyl)amino]pyridin-4-yl}-1,5,6,7-tetrahydro-4H-indol-4-one]: the IC50 worked out at 1440 nM.
